Converted amounts (≈) assume the structure as drawn. Read-outs that look alike come from different tables or passages of the source.
Assays:
[1] = system: NCl/ADR-RES drug resistant human ovarian cancer cells; assay: In vitro cytotoxicity, MTT assay; format: cell-based
Protocol: On the fifth day cytotoxicity analysis was performed using an MTT assay. Data points represent average±SE (n=4).
On day 5 cytotoxicity analysis was measured using an MTT assay. Data points represent average±SE (n=4).
The cells were washed twice with ice cold phosphate buffer and replaced with fresh media. […] On day 5 cytotoxicity analysis was performed using an MTT assay.
On the fifth day cytotoxicity analysis was performed using the MTT assay.

[2] = system: MCF-7 human breast cancer cells; assay: In vitro cytotoxicity, MTT assay; format: cell-based; details: MCF7, 120 h, doxorubicin 15.62 nM to 1000 nM, MTT on day 5
Protocol: […]. On day 5 cytotoxicity analysis was performed using an MTT assay. Data points represents average±SE (n=4). […].
The cells were washed twice with ice cold phosphate buffer and replaced with fresh media. Media was replaced for every 48 hours. At day 5, cytotoxicity analysis was performed using the MTT assay.

[3] = cited from earlier work
[4] = system: JC mouse breast cancer cells; assay: In vivo biodistribution in allograft breast tumor mouse model; details: i.v.; 3 hours after administration
Protocol: The tumor model was developed by subcutaneous injection of JC mouse breast cancer cells. […] Animals were sacrificed 3 hours after treatment administration. Tumor and organs were collected. Doxorubicin concentration in tumors and organs were determined using a fluorescence based isocratic HPLC method. […] Female nude mice (Charles River Laboratories, Wilmington, Mass.) were used in the study. JC mouse breast cancer cells (1×10^7 cells) were suspended in PBS and injected subcutaneously. […] After 3 hours, the mice were sacrificed and organs (liver, heart, lungs, spleen, brain and tumor) were collected and homogenized in 2 mL deionized water using a tissue homogenizer. After addition of 100 ng of daunorubicin (internal standard), tissue homogenates were lyophilized.
Dry tissues were weighed and extracted with 5 mL of methanol/chloroform mixture (65:35) using a shaker for 5 hours in the dark at room temperature. The extract was centrifuged at 13,000 rpm for 10 minutes at 4° C. The supernatant was evaporated under nitrogen gas and reconstituted in methanol/acetonitrile (50:50).

[5] = cited from earlier work; remark: listed apart in the source
[6] = comparison surfactant / block copolymers; cited from earlier work

doxorubicin accumulation in tumor [4] | Compound | IC50 ([1]; 120 h, doxorubicin 31.25 nM to 1000 nM, MTT on day 5, read-out: IC50) [nM] | IC50 [2] [nM] | solubility in water ([3]; free compound) | solubility in water ([3]; free drug) [µg/mL] | IC50 ([1]; 96 h) [nM] | Log P ([5]; Table 3, cargo compound itself) | Log P [5] | critical micellar concentration (CMC) [6]
no drug accumulation | COc1cccc2c1C(=O)c1c(O)c3c(c(O)c1C2=O)C[C@@](O)(C(=O)CO)C[C@@H]3O[C@H]1C[C@H](N)[C@H](O)[C@H](C)O1 [Doxorubicin] | 126 | 148 | practically insoluble in water | 0.015 (≈ 0.0276 µM) |  |  |  | 
 | COc1cc(/C=C/C(=O)/C=C(O)/C=C/c2ccc(O)c(OC)c2)ccc1O [Curcumin] |  |  | practically insoluble in water | 0.011 (≈ 0.0299 µM) | 104 | 2.5 | 2.5 | 
 | CCCCCCCCCCCCOS(=O)(=O)[O-].[Na+] [sodium dodecyl sulfate] |  |  |  |  |  |  |  | about 2.304 g/L
 | CCN(CC)c1ccc2nc3c4ccccc4c(=O)cc-3oc2c1 [Nile red] |  |  | practically insoluble in water |  |  | 5 |  | 

From patent publication US8697098B2, “Polymer conjugated protein micelles” (South Dakota State University, priority 2011, dated 2014)
